In patent EP4631951A1, “SYNTHETIC VACCINES AGAINST POR[…]” (Max-Planck-Gesellschaft zur Förderung der Wissenschaften …, priority 2024, dated 2025):
“Also recorded” adds a separate entry of the source.

Experiments:
[1] = test system: human IgA antibodies; assay: Glycan microarray with human sera and saliva, IgA; type: binding; conditions: human saliva and serum
Description: (§1) Here, human sera and saliva from P. gingivalis infected patients were used to screen antibodies against the synthetic glycan library 1-11 to determine whether LPS fragments are potential leads for vaccine development.
(§2) Samples were taken from a pool of patients at the Charit6 Zahnklinik (provided by Prof. Dr. Henrik Dommisch). The dental status of three groups of patients was defined as: healthy (20 patients, no clinical indications for CP), infected (16 patients, CP stage III or stage IV) and recovered from CP (six patients). Recovered patients were treated from CP stage III or stage IV at the Charit6 Zahnklinik by resective and regenerative surgery and execution of two to four professional dental cleanings per year.
(§3) The synthesized LPS fragments of P. gingivalis were immobilized at NHS-activated carboxyl-functionalized glass slides in triplicates (Figure 10 A, B). Additionally, a positive glycan control containing the α(1→2)-trirhamnose (5.06) was used in the assay, because most humans develop antibodies against this pathogen-associated glycan

[2] = test system: human IgG antibodies; assay: Glycan microarray with human sera and saliva, IgG; type: binding; conditions: for IgG antibody binding: human saliva and human serum (blood); for IgG binding in CP saliva compared with healthy (and recovered) patients / IgG antibody binding in saliva, compared between glycans: human saliva; for IgG antibody binding in saliva, compared between glycans: MFI, Figures 12 and 13
Description: as §1, §2, §3

[3] = test system: C57BL/6NRj mice; assay: Glycan microarray analysis of antibody binding in sera of immunized mice; type: in vivo
Description: The immunizations were approved by Landesamt für Gesundheit und Soziales Berlin, Germany (Approval ID: G 0329/18). 8 weeks old C57BL/6NRj mice (Janvier, Le Genest-Saint_Isle, France) were housed at Bundesinstitut für Risikobewertung, Berlin, Germany in groups of five animals in individually ventilated cages (Tecniplast, Hohenpeißenberg, Germany) under specific pathogen-free conditions. Housing and experiments were in accordance with institutional guidelines and with the regulations of the Federation of European Laboratory Animal Science Associations (FELASA). Mice were immunized subcutaneously (s.c.) with 1µg of glycoconjugate per injection. The glycoconjugates, together with Alum adjuvant, were diluted in sterile PBS to a final volume of 100 µL per dose. The animals were immunized on day 0 (primary immunization) and boosted on days 14, 28, and final boosting on day 196. Blood (max. 80µL) and saliva were collected every two weeks. The mice were fixed with on hand and a swap was used to collect the saliva and was afterwards centrifuged at 400 g for 5 min. After coagulation at room temperature, serum was separated by centrifugation at 2,000 g for 10 min. The sera and saliva were frozen at -20°C until further usage. [drawing 126]
Synthetic polysaccharides containing an amine linker as well as protein controls were immobilized on glass microarray slides. The slides were then quenched, blocked with 1% BSA-PBS, and stored at 4°C until use. […]
Slides were incubated for 1 hour at 37 °C in a humidification chamber, washed three times with PBST, rinsed with deionized water, and dried by centrifugation. Fluorescence signals were measured with a Genepix 4300A device (Molecular Devices, Sunnyvale, CA, USA).
The photomultiplier tube (PMT) voltage was adjusted to avoid oversaturation of the signals. Data were analyzed using GenePix Pro 7 software (Molecular Devices, Sunnyvale, CA, USA). […]

Row | SMILES | IgG antibody binding [2] | IgG antibody binding in saliva, compared between glycans [2] | further results
1 | C[C@@H]1O[C@@H](O[C@H]2[C@H](O[C@H]3[C@H](OCCCCCN)O[C@@H](C)[C@H](O)[C@H]3O)O[C@@H](C)[C@H](O)[C@H]2O)[C@H](O)[C@H](O)[C@H]1O [5.06, 5-Aminopentyl-a-(1→2)-L-trirhamnopyranoside, reference compound] | showed IgG antibody binding | – | IgA antibody binding [1]: significant binding of IgA; IgG antibodies in saliva ([2]; healthy individuals compared with CP and recovered CP patients): also observed in healthy individuals, but significantly less than in chronical periodontitis patients and recovered chronical periodontitis patients
2 | CC(=O)N[C@H]1[C@H](OCCCCCN)O[C@H](CO)[C@H](O)[C@@H]1O[C@@H]1O[C@@H](C)[C@H](O[C@H]2O[C@H](CO[C@H]3O[C@H](CO)[C@H](O)[C@H](O)[C@H]3O)[C@@H](O)[C@H](O)[C@H]2O)[C@@H](O)[C@H]1O [compound 1, 5-Aminopentyl-α-D-galactopyranosyl-(1→6)-α-D-glucopyranosyl-(1→4)-α-L-rhamnopyranosyl-(1→3)-2-acetamido-2-deoxy-B-D-galactopyranoside] | – | strongest IgG interaction observed in these studies; also recorded: highest amount of bound IgG antibodies in this study | IgM-responses ([3]; course of the experiment, response against the named glycan): remained at low levels; IgG binding in CP saliva compared with healthy (and recovered) patients [2]: significantly higher than in dental healthy patients; IgG in serum of patients infected with P. gingivalis ([2]; human serum): binds
3 | CC(=O)N[C@H]1[C@H](O[C@H]2[C@@H](O)[C@@H](CO)O[C@H](OCCCCCN)[C@@H]2O)O[C@H](CO)[C@H](O)[C@@H]1O[C@@H]1O[C@@H](C)[C@H](O)[C@@H](O)[C@H]1O [compound 2, 5-Aminopentyl-α-L-rhamnopyranosyl-(1→3)-2-acetamido-2-deoxy-β-D-galactopyranosyl-(1→3)-α-D-galactopyranoside] | show binding to IgG antibodies | higher amount of IgG antibody binding than to rhamnose monomer 9 | IgM levels ([3]; day 28, response against the named glycan): relatively high; IgM response peaked ([3]; response against the named glycan in mice immunized with its CRM197 conjugate (text names only the glycan)): 14 days; IgG binding in CP saliva compared with healthy (and recovered) patients [2]: stronger IgG binding observed for CP patients
4 | CC(=O)N[C@H]1[C@H](O[C@H]2[C@@H](O)[C@@H](CO)O[C@H](OCCCCCN)[C@@H]2O)O[C@H](CO)[C@H](O)[C@@H]1O[C@@H]1O[C@@H](C)[C@H](O[C@H]2O[C@H](CO)[C@@H](O)[C@H](O)[C@H]2O)[C@@H](O)[C@H]1O [compound 3, 5-Amino-pentyl α-D-glucopyranosyl-(1→4)-α-L-rhamnopyranosyl-(1→3)-2-acetamido-2-deoxy-β-D-galactopyranosyl-(1→3)-α-D-galactopyranoside] | showed IgG antibody binding; also recorded: show binding to IgG antibodies | – | –
5 | CC(=O)N[C@H]1[C@H](O[C@H]2[C@@H](O)[C@@H](CO)O[C@H](OC[C@H]3O[C@H](O[C@@H]4[C@@H](O)[C@@H](O)[C@H](OCCCCCN)O[C@H]4C)[C@H](O)[C@@H](O)[C@@H]3O)[C@@H]2O)O[C@H](CO)[C@H](O)[C@@H]1O [compound 4, 5-Aminopentyl-2-acetamido-2-deoxy-β-D-galactopyranosyl-(1→3)-α-D-galactopyranosyl-(1→6)-α-D-glucopyranosyl-(1→4)-α-L-rhamnopyranoside] | showed IgG antibody binding | higher IgG antibody binding than 5 tetrasaccharide | –
6 | CC(=O)N[C@H]1[C@H](O[C@H]2[C@@H](O)[C@@H](CO)O[C@H](OC[C@H]3O[C@H](OCCCCCN)[C@H](O)[C@@H](O)[C@@H]3O)[C@@H]2O)O[C@H](CO)[C@H](O)[C@@H]1O[C@@H]1O[C@@H](C)[C@H](O)[C@@H](O)[C@H]1O [compound 5, 5-Aminopentyl-α-L-rhamnopyranosyl-(1→3)-2-acetamido-2-deoxy-β-D-galactopyranosyl-(1→3)-α-D-galactopyranosyl-(1→6)-α-D-glucopyranoside] | showed IgG antibody binding; also recorded: show binding to IgG antibodies | – | –
7 | NCCCCCO[C@H]1O[C@H](CO[C@H]2O[C@H](CO)[C@H](O)[C@H](O)[C@H]2O)[C@@H](O)[C@H](O)[C@H]1O [compound 7] | showed IgG antibody binding; also recorded: show binding to IgG antibodies | bind significantly less IgG | IgA antibody binding [1]: significant binding of IgA
8 | NCCCCCO[C@H]1O[C@H](CO)[C@H](O)[C@H](O)[C@H]1O [compound 11, 5-Aminopentyl α-D-galactopyranoside] | show binding to IgG antibodies | bind significantly less IgG | –
